We go through five molecules from patent US11512042B2, “Enamine compounds for absorbance of electromagnetic energy” (Commonwealth Scientific and Industrial Research Organisation, priority 2015, dated 2022).

Several values for one entry are separate records, joined by “and”; a condition that tells them apart may be missing. Identical values can stand only once. Entries after “also recorded” stand apart in the source; their conditions may differ.

Type in all cases: physicochemical
A short description of data set [1]: UV absorbance spectrum in solution (λmax, λcrit, extinction coefficients). The following applies: for λcrit: critical wavelength; for E (1%, 1 cm): mass extinction coefficient. An outline of the steps:
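Spectra taken on 0.001% solutions in methanol, 10 mm path. Breakthrough is the wavelength where transmittance rises above 1%; steepness is the nm span over which transmittance goes from 1 to 80%.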

Data set [2] in a line: % transmission spectrum of 0.1% solution (breakthrough, steepness). The following applies: for Breakthrough (1% T at 0.1%): value in nm where transmittance increases beyond 1%, 0.1% solution; for Steepness: distance in nm over which transmittance increases from 1 to 80%. An outline of the steps: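 Transmission was recorded for 0.1% methanol solutions in a 2 mm cuvette. Breakthrough is the wavelength (nm) at which transmittance exceeds 1%; steepness is the nm span over which transmittance rises from 1 to 80%. Some values are averages of multiple measurements.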

The nature of data set [3]: Solubility in the photostability test solution. To be noted: printed in the photostability (or steepness) column. The text has this: The properties of these compounds are shown in table 9 with comparator compounds. […] In both cases low solubility meant that photostability could not be measured. This would not preclude use of the compounds in many applications where solubility is not at issue.
In one embodiment, the compounds may provide for improved solubility or stability in standard compositions, including sunscreen compositions. Such solubility may be measured by generating, for example, a 3% solution of the relevant compound in 2:1:1 EtOH:capric/caprylic triglyceride:C12-C15 alkyl benzoate.
1 mL of a 3% solution of the test compound (30 mg of test compound in 1 mL solvent) was prepared in a solvent mix made up of 50% EtOH and 25% capric/caprylic triglyceride and 25% C12-C15 alkyl benzoate. 50 μL of this solution (containing 1.5 mg of test compound) was added carefully to the centre of a glass microscope slide and the volatile components left to evaporate in the dark for at least 3 hours to give a liquid film. The prepared films were then exposed for 1 hour to an Eimac 150 W xenon arc lamp filtered through Pyrex (15 Amp supply current, samples 19 cm from the lamp) previously allowed to warm up for 15 minutes prior to sample exposure. […] One hour's exposure represented a calculated radiation dose (using meter) of approximately 100 MED.

Data set [4] in a line: Lens casting in NK ester lens formulation. To be noted: AIBN initiator, cured 70° C. 18 hours, 0.1 wt %. The method, then: (§1) Two lens formulations were used. The first (CR-39) was composed of Di(ethylene glycol) bis(allylcarbonate) with 3% wt benzoyl peroxide as initiator. The second lens formulation (NK) was made up of 4 parts NK Ester BPE 100N (Ethoxylated Bisphenol A dimethacrylate) to 1 part NK Ester 9G (PEG 400 dimethacrylate) with 0.4 wt % AIBN as initiator.
(§2) Once the glue had dried the lens matrix (3 g of the lens matrix was treated with 3 mg of absorber, 0.1 wt % and stirred until dissolution complete. 3 g of the matrix was sufficient to prepare 3-4 lenses) was added via pipette to the interior until a convex meniscus was formed at the top of the O-ring. The mixture was then left to settle for 15 minutes during which time any bubbles formed were dispersed. A second microscope slide was then slowly rolled on top of the first to form a seal and expel any air. Taking care to maintain pressure the lens mould was then clamped at the sides with two “Bulldog” clips and cured in an oven at 70° C. for 18 hours. Once the curing process was complete the two microscope slides were separated and the lens removed from the O-ring before washing with acetone and drying/polishing with a soft tissue. The lenses thus formed were approximately 2 mm thick and 15 mm in diameter.

Data set [5] can be described thus: PMMA film in QUV Weatherometer. To be noted: type A bulbs, 70° C. 8 hours then dark humid 50° C. 4 h. The method, then: In order to gauge longer term photostability, the PMMA film samples were evaluated in a QUV Weatherometer using type A bulbs with solar irradiance at 70° C. for 8 hours followed by heating in the dark under a humid atmosphere at 50° C. for 4 h. The film was then sandwiched between 2 glass slides to prevent deformation and irradiated. The samples were evaluated by a visual comparison and measurement of transmittance spectra. […] This clearly indicates the suitability of compounds of the first aspect to incorporation into polymeric matrices and films. The relevant transmission spectra are shown in FIG. 11 (142), FIG. 12 (143), FIG. 13 (164), FIG. 14 (213) and FIG. 15 (215) wherein in all of these figures the lower plateau line represents the result following radiation and the upper line prior to irradiation.

Data set [6] can be described thus: Lens casting in CR-39 lens formulation. To be noted: benzoyl peroxide initiator, cured 70° C. 18 hours, 0.1 wt %. The method, then: as §1, §2
Of particular interest are compounds 163 and 164 which show an increase in λmax on constraining only the nitrogen substituent in a ring i.e. not the double bond. […] Additionally the dimethyl analogue 213 (structure in table 14) was also evaluated.

Data set [7] can be described thus: Stability to epoxy resin curing. To be noted: 2 part epoxy resin, transmittance vs solution. The method, then: In order to test the stability of a number of compounds to a typical epoxy resin curing system, epoxy adhesive packs were obtained (Parfix 5 minute everyday epoxy adhesive, 24 ml). This is a standard 2 part epoxy resin with the first part composed of a viscous Bisphenol-A/epichlorohydrin polymeric reaction product. The second part is a viscous 30% solution of an aminophenol hardener, T (shown below). Epoxy resins cured by 1° and 2° amines are also available.
To test the stability of the compounds to the curing conditions, a 0.1% wt (1 mg absorber per gram of resin) was prepared and added to a mould comprising a 2 mm thick viton o-ring super glued to a microscope slide. […] Due to difficulties in solubilising the compounds in the mixed resin/hardener in the limited working time as the resin cured; the two barrels of the application syringe were separated with a scalpel allowing the separate application of both parts of the resin system.
This was then mixed thoroughly and immediately added to the moulds as described above. […]

Data set [8] is described as follows: Irradiation of PMMA thin film (xenon lamp, sunlight). To be noted: irradiated 1 h, 2 h and 3 weeks direct sunlight. The method, then:
In order to determine the stability of the compounds in a polymer matrix, thin films were cast in Poly(methylmethacrylate) (PMMA). This was achieved by adding the compound in question to a solution of PMMA (Mw 240,000) in DCM and spreading the resulting solution onto a glass slide before evaporation over night to give the desired film. The film was then sandwiched between 2 glass slides to prevent deformation and irradiated. […] In this way films of compound 164 were prepared. The films were irradiated for 1 h, 2 h and also left outside exposed to direct sunlight and atmospheric conditions for 3 weeks (Melbourne summer time).

Data set [9] can be described thus: Irradiation in polyurethane varnish coating. To be noted: 1% in polyurethane varnish, xenon arc lamp two hours. The method, then: As a model for the use of the compounds of the first aspect in coatings, a 1% solution by mass (10 mg in 1 g) of the compounds in British Paints oil based polyurethane varnish was applied to the surface of a microscope slide and left to dry overnight in the dark. The transmittance of the slide was then measured before irradiating the sample with a xenon arc lamp (as for the solution phase thin film samples) for two hours and the transmittance re-measured. Slight variations in the thickness of the films obtained would be sufficient to result in variations in transmittance so it was judged to be of equal importance to observe the slope of the samples before and after irradiation as any change here was likely an indicator of decomposition. The varnish itself blocks the transmission of light up to approximately 350-370 nm.

Data set [10] can be described thus: Photostability protocol: thin film irradiated with xenon arc lamp. To be noted: 1 hour xenon arc lamp; for Photostability: ratio of absorbance at λmax irradiated vs unirradiated, ^a = average of multiple measurements. An outline of the steps:
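A 3% solution in EtOH/triglyceride/alkyl benzoate is dried on glass slides into a liquid film of 1.5 mg compound. Films are irradiated 1 h with a Pyrex-filtered 150 W xenon arc lamp (about 100 MED, below 30° C). Washings are read by UV; stability is absorbance at λmax relative to unirradiated film.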

Where [11] appears, read: molar extinction coefficient, in M-1 cm-1 (unit assumed).

Regarding `N#CCC(=O)/C(=C\N1CCc2ccccc21)c1ccccc1` [Compound 249], in data set [1], the λmax was 361 nm; the λcrit was 361 nm; the “E (1%, 1 cm)” value is given as 1089. Further, the ε in data set [1] (setting [11]) was 31385. Moreover, in [2], the “Breakthrough (1% T at 0.1%)” value came to 405 nm. Also, the “Solubility for photostability measurement” value in [3] is given as “Not soluble”.

Turning to `O=C(/C(=C\N(c1ccccc1)c1ccccc1)c1ccccc1)C(F)(F)F` [Compound 143, 4-(diphenylamino)-1,1,1-trifluoro-3-phenylbut-3-en-2-one], in [1], the λmax is 351 nm; the λcrit is listed as 381 nm; the “E (1%, 1 cm)” value was determined as 760. The same molecule had a ε in data set [1] (UV, at λmax) of 27893 M⁻¹ cm⁻¹. In data set [1] (setting [11]), this molecule registered a ε of 27893. In [2], the Steepness is reported as 32 nm and the “Breakthrough (1% T at 0.1%)” value stood at 402 nm. Further, the “Stability to lens casting conditions” value in [4] is “very little if any decomposition”. Further, in data set [5], the “Longer term photostability in PMMA film” value was “little sign of decomposition after irradiation”. Also, the “Stability to lens casting conditions” value in [6] is reported as “stable enough for such incorporation; also recorded: very little if any decomposition”. Besides, in data set [3], the “Solubility for photostability measurement” value is “Not soluble”. The “Stability to epoxy resin curing” value in [7] was “little or no decomposition occurred”.

Turning to `O=C(/C(=C\N1CCc2ccccc21)c1ccccc1)C(F)(F)F` [Compound 164], in [1], the λmax turned out to be 367 nm; the λcrit was found to be 389 nm; the “E (1%, 1 cm)” value is given as 1127. The molecule further returned a ε in data set [1] (setting [11]) of 35741. In data set [2], the Steepness was 20 nm and the “Breakthrough (1% T at 0.1%)” value stood at 418 nm. Moreover, the “Longer term photostability in PMMA film” value in data set [5] is “little sign of decomposition after irradiation”. Further, the “Stability to lens casting conditions” value in data set [6] is recorded as “stable enough for such incorporation; also recorded: good stability to the lens curing conditions”. The “Stability in PMMA thin film” value in [8] is given as “without compound deterioration”. In addition, the “Stability to epoxy resin curing” value in [7] is given as “remain intact after curing”. The “Stability to irradiation in varnish” value in data set [9] is recorded as “largely unscathed by the irradiation”. In data set [10], the “Photostability (% remains)” value turned out to be 99% and the Photostability was 99%.

`CC1(C)CN(/C=C(\C(=O)C(F)(F)F)c2ccccc2)c2ccccc21` [Compound 213]: in [1], the λmax came to 366 nm; the λcrit is 389 nm; the “E (1%, 1 cm)” value turned out to be 860. In data set [1] (setting [11]), this molecule returned a ε of 29690. Besides, in [2], the Steepness is listed as 22 nm and the “Breakthrough (1% T at 0.1%)” value is 413 nm. Further, the “Longer term photostability in PMMA film” value in [5] was “little sign of decomposition after irradiation”. The “Stability to lens casting conditions” value in [6] is “stable enough for such incorporation; also recorded: good stability to the lens curing conditions”.

For the molecule `CCN(/C=C(\C(=O)C(F)(F)F)c1ccccc1)c1ccccc1` [Compound 142, 4-(ethyl(phenyl)amino)-1,1,1-trifluoro-3-phenylbut-3-en-2-one], the entries for the “Stability to lens casting conditions” value in data set [4] and in [6] were “very little if any decomposition” and “stable enough for such incorporation; also recorded: very little if any decomposition”, respectively. Also, in data set [5], the “Longer term photostability in PMMA film” value is “little sign of decomposition after irradiation”. Besides, in data set [10], the “Photostability (% remains)” value was 91% and 99%. The Photostability in data set [10] came out at 99%.
